This note sets out measurements from PMC12063423, “Identification of the methionine transporter MetQ in Streptococcus suis and its contribution to virulence and biofilm formation” (Veterinary Research, 2025).

pKd: −log10 of the molar value.

The assay concerns the target T1, MetQ (SSU1577) (Streptococcus suis, UniProt A0A0H3N1C6).
T1 construct: gene SSUBM407_1651; mature protein aa 31-283 without signal peptide (1-29) and lipobox Cys30; codon-optimised, pET16b, E. coli BL21(DE3); full-length precursor 283 aa
Nature of the assay: isothermal titration calorimetry, one-site model. Format: binding. The settings on record: PBS pH 7.3, 25 °C; 38.8 µM protein in cell, 200 µM ligand in syringe.

T1 sequence (A0A0H3N1C6 entry or part of it): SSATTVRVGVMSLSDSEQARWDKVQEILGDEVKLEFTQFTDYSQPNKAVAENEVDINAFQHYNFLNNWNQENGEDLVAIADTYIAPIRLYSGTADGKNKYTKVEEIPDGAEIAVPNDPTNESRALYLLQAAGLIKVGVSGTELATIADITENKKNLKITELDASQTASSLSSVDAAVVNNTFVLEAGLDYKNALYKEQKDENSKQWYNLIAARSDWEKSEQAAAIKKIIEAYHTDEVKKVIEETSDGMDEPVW

With `CSCC[C@H](N)C(=O)O` [L-methionine], the pKd (commonly the negative decadic logarithm of the Kd, by convention in mol/L) is 5.15.
